Measurements reported in patent publication US20040242591A1, “Oxazolidinone derivatives as pontential antimicrobials” (priority 2001, published 2004).

Tests used:
S.aureus ATCC 25923 = assay: MIC by agar incorporation method, S.aureus 25923; type: cell-based, Staphylococus aureus; design: unit not given here; conditions: Mueller Hinton agar, 10^4 CFU/spot, 18 hours
MRSA 15187 = assay: MIC by agar incorporation method, MRSA 15187; type: cell-based, Methicillin Resistant Staphylococcus aureus; design: unit not given here; conditions: Mueller Hinton agar, 10^4 CFU/spot, 24 hours
From the text: 2) MRSA 15187—Methicillin Resistant Staphylococcus aureus

MRSA 562 = assay: MIC by agar incorporation method, MRSA 562; type: cell-based, Methicillin Resistant Staphylococcus aureus; design: unit not given here; conditions: Mueller Hinton agar, 10^4 CFU/spot, 24 hours
MRSA 33 = assay: MIC by agar incorporation method, MRSA 33; type: cell-based, Methicillin Resistant Staphylococcus aureus; design: unit not given here; conditions: Mueller Hinton agar, 10^4 CFU/spot, 24 hours
Ent. faecalis ATCC 29212 = assay: MIC by agar incorporation method, E.faecalis 29212; type: cell-based, Enterococcus faecalis; design: unit not given here; conditions: Mueller Hinton agar, 10^4 CFU/spot, 18 hours
From the text: 3) Ent. faecalis ATCC 29212—Enterococcus faecalis ATCC 29212

VRE 6A = assay: MIC by agar incorporation method, VRE 6A; type: cell-based, Enterococcus faecium; design: unit not given here; conditions: Mueller Hinton agar, 10^4 CFU/spot, 18 hours
From the text: 4) Ent. faecium […]—Enterococcus faecium 6A Van®, Cipro®

Strep.pyog. ATCC 19615 = assay: MIC by agar incorporation method, S.pyogenes 19615; type: cell-based, Streptococcus pyogenes; design: unit not given here; conditions: Mueller Hinton agar, 10^4 CFU/spot, 18 hours
From the text: 6) Strep.pyog. ATCC 19615—Streptococcus pyogenes

Strep. pne. ATCC 6303 = assay: MIC by agar incorporation method, S. pneum 6303; type: cell-based, Streptococcus pneumoniae; conditions: Mueller Hinton agar, 10^4 CFU/spot, 18 hours
From the text: 5) Strep. pne. ATCC 6303—Streptococcus pneumoniae ATCC 6303

S. pneum AB 34 = assay: MIC by agar incorporation method, S. pneum AB 34; type: cell-based, Streptococcus pneumoniae; design: unit not given here; conditions: Mueller Hinton agar, 10^4 CFU/spot, 18 hours

SMILES | In Vitro (MIC) S.aureus 25923 (S.aureus ATCC 25923) | In Vitro (MIC) MRSA 15187 (MRSA 15187) | In Vitro (MIC) MRSA 562 (MRSA 562) | In Vitro (MIC) MRSA 33 (MRSA 33) | In Vitro (MIC) E.faecalis 29212 (Ent. faecalis ATCC 29212) | In Vitro (MIC) VRE 6A (VRE 6A) | In Vitro (MIC) S.pyogenes 19615 (Strep.pyog. ATCC 19615) | In Vitro (MIC) S. pneum 6303 (Strep. pne. ATCC 6303) [µg/mL] | In Vitro (MIC) S. pneum AB 34 (S. pneum AB 34)
CC(=O)NC[C@H]1CN(c2ccc(N3C(C)CN(Cc4ccc([N+](=O)[O-])o4)CC3C)c(F)c2)C(=O)O1 (stereo partly drawn) [Compound No. 63, (S)-N-[[3-[3-Fluoro-4-[N-1-[2,6-dimethyl-4-{2-furyl-(5-nitro)methyl-}]-piperazinyl]phenyl]-2-oxo-5-oxazolidinyl]methyl]acetamide] | 16 | 8 | 8 | 8 | 8 | 8 | 16 | 16 | 16
CC(=O)NC[C@H]1CN(c2ccc(N3C(C)CN(C(=O)Cc4cccs4)CC3C)c(F)c2)C(=O)O1 (stereo partly drawn) [Compound No. 66, (S)-N-[[3-[3-Fluoro-4-[N-1-[2,6-dimethyl-4-(2-thienylacetyl)]-piperazinyl]phenyl]-2-oxo-5-oxazolidinyl]methyl]acetamide] | 8 | 8 | 8 | 8 | 8 | 8 | 16 | 16 | 16
CC(=O)NC[C@H]1CN(c2ccc(N3CCN(C(=O)Cc4cccs4)C(C)C3)c(F)c2)C(=O)O1 (stereo partly drawn) [Compound No. 68, (S)-N-[[3-[3-Fluoro-4-[N-1-[3-methyl-4-{2-thienylacetyl-}]-piperazinyl]phenyl]-2-oxo-5-oxazolidinyl]methyl]acetamide] | 4 | 4 | 4 | 4 | 4 | 4 | 2 | 4 | 4
CC(=O)NC[C@H]1CN(c2ccc(N3CCN(C(=O)c4ccc([N+](=O)[O-])o4)C(C)C3)c(F)c2)C(=O)O1 (stereo partly drawn) [Compound No. 69, (S)-N-[[3-[3-Fluoro-4-[N-1-[3-methyl-4-{2-furoyl-(5-nitro)}]-piperazinyl]phenyl]-2-oxo-5-oxazolidinyl]methyl]acetamide] | 1 | 1 | 0.5 | 1 | 0.5 | 0.5 | 2 | 8 | 8
CC(=O)NC[C@H]1CN(c2ccc(N3CCN(C(=O)c4ccc([N+](=O)[O-])s4)C(C)C3)c(F)c2)C(=O)O1 (stereo partly drawn) [Compound No. 70, (S)-N-[[3-[3-Fluoro-4-[N-1-[3-methyl-4-{2-thienoyl-(5-nitro)}]-piperazinyl]phenyl]-2-oxo-5-oxazolidinyl]methyl]acetamide] | <0.25 | 0.5 | <0.25 | <0.25 | 2 | 1 | <0.25 | 4 | 4
CC(=O)NC[C@H]1CN(c2ccc(N3CCN(Cc4oc(C=O)cc4C)CC3)c(F)c2)C(=O)O1 [Compound No. 71] | 4 | 2 | 2 | 4 | >8 | >8 | >8 | >8 | >8
CC(=O)NC[C@H]1CN(c2ccc(N3CCC(N(C)C(=O)c4ccc([N+](=O)[O-])o4)C(C)C3)c(F)c2)C(=O)O1 (stereo partly drawn) [Compound No. 74, (S)-N-[[3-[3-Fluoro-4-[[3-methyl-4-{N-methyl-2-furoyl-(5-nitro)}]-aminopiperidine-1-y]phenyl]-2-oxo-5-oxazolidinyl]methyl]acetamide] | <0.5 | <0.5 | <0.5 | 1 | 1 | 1 | 8 | 8 | 8
CCN(C(=O)c1ccc([N+](=O)[O-])s1)C1CCN(c2ccc(N3C[C@H](CNC(C)=O)OC3=O)cc2F)CC1 [Compound No. 79, (S)-N-[[3-[3-Fluoro-4-[4-{N-ethyl-2-thienoyl-(5-nitro)}aminopiperidine-1-yl]phenyl]-2-oxo-5-oxazolidinyl]methyl]acetamide] | 0.5 | 0.5 | 0.5 | 0.5 | 2 | 2 | 0.5 | 4 | 4
CCN(C(=O)c1ccc([N+](=O)[O-])o1)C1CCN(c2ccc(N3C[C@H](CNC(C)=O)OC3=O)cc2F)CC1 [Compound No. 80, (S)-N-[[3-[3-Fluoro-4-[4-{N-ethyl-2-furoyl-(5-nitro)}aminopiperidine-1-yl]phenyl]-2-oxo-5-oxazolidinyl]methyl]acetamide] | 1 | 1 | 0.5 | 1 | 1 | 1 | 2 | 4 | 4
CCN(Cc1ccc([N+](=O)[O-])s1)C1CCN(c2ccc(N3C[C@H](CNC(C)=O)OC3=O)cc2F)CC1 [Compound No. 83, (S)-N-[[3-[3-Fluoro-4-[4-{N-ethyl-N-2-thiophenyl-(5-nitro)methyl}-aminopiperidine-1-yl]phenyl]-2-oxo-5-oxazolidinyl]methyl]acetamide] | 4 | 4 | 4 | 4 | 4 | 4 | 8 | 8 | 8
CC(=O)NC[C@H]1CN(c2ccc(N3CCC(NCc4ccc([N+](=O)[O-])s4)CC3)c(F)c2)C(=O)O1 [Compound No. 84, (S)-N-[[3-[3-Fluoro-4-[4-{N-thienyl-(5-nitro)methyl}-aminopiperidine-1-yl]phenyl]-2-oxo-5-oxazolidinyl]methyl]acetamide] | 2 | 2 | 2 | 2 | 1 | 2 | 1 | 2 | 2
CC(=O)NC[C@H]1CN(c2ccc(N3CCC(N=Cc4ccc([N+](=O)[O-])o4)CC3)c(F)c2)C(=O)O1 [Compound No. 85, (S)-N-[[3-[3-Fluoro-4-[4-{2-furyl-(5-nitro)methylene]-aminopiperidine-1-yl]phenyl]-2-oxo-5-oxazolidinyl]methyl]acetamide] | 4 | 4 | 4 | 4 | >8 | >8 | 2 | 4 | 4
